What was measured:
[1] = Remark on solubility in NMR characterisation; type: physicochemical; conditions: CD3OD-D2O-CDCl3 (NMR solvent); no 13C NMR
[2] = Remark on oxidation sensitivity in NMR characterisation; type: physicochemical; conditions: no long-term 13C-NMR measurement

Row | solubility [1] | Compound | sensitivity to oxidation in organic solvents [2]
1 | poor solubility | COC(=O)CCCCCCCCO[C@@H]1O[C@H](CO)[C@@H](O[C@@H]2O[C@H](CO)[C@H](O)[C@H](O[C@]3(C(=O)O)C[C@H](O)[C@@H](NC(C)=O)[C@H]([C@H](O)[C@H](O)CO)O3)[C@H]2O)[C@H](O)[C@H]1NC(=O)c1cnc2nc(N)nc(O)c2n1 [(59)] | 
2 |  | COC(=O)CCCCCCCCO[C@@H]1O[C@H](CO)[C@@H](O)[C@H](O[C@@H]2O[C@H](CO)[C@H](O)[C@H](O[C@]3(C(=O)O)C[C@H](O)[C@@H](NC(C)=O)[C@H]([C@H](O)[C@H](O)CO)O3)[C@H]2O)[C@H]1NC(=O)c1ccc(O)c(O)c1 [(73)] | sensitivity of the compound to oxidation in organic solvents
